Like-named read-outs stand apart in the source and are kept apart here.
Experiments:
[1] = target: T1, EGFR (d746-750) (Homo sapiens, UniProt P00533, DEL746-750); experiment: Biochemical EGFR inhibition assay (Caliper mobility shift), EGFR (d746-750); settings: read-out: Enz EGFR_Exon19-del746-750 IC50
T1 construct: purchased SignalChem E10-122JG

[2] = target: T2, EGFR L858R (Homo sapiens, UniProt P00533, L858R); experiment: Biochemical EGFR inhibition assay (Caliper mobility shift), EGFR L858R; settings: read-out: Enz EGFR_L858R IC50
T2 construct: purchased SignalChem E10-122BG

[3] = target: intracellular phosphorylation of EGFR (Tyr1068) in PC-9 cells (Ex19Del) (Homo sapiens, UniProt P00533, DEL746-750); experiment: PC-9 pEGFR AlphaLISA assay; type: cell-based; settings: 4 hours compound incubation, read-out: Ext pEGFR_PC-9 Ex19Del IC50
[4] = 1.0 mM ATP or ATP Km, room temperature (25° C.)

T1 sequence (P00533 with tags, fused parts or gaps DEL746-750 limits assumed): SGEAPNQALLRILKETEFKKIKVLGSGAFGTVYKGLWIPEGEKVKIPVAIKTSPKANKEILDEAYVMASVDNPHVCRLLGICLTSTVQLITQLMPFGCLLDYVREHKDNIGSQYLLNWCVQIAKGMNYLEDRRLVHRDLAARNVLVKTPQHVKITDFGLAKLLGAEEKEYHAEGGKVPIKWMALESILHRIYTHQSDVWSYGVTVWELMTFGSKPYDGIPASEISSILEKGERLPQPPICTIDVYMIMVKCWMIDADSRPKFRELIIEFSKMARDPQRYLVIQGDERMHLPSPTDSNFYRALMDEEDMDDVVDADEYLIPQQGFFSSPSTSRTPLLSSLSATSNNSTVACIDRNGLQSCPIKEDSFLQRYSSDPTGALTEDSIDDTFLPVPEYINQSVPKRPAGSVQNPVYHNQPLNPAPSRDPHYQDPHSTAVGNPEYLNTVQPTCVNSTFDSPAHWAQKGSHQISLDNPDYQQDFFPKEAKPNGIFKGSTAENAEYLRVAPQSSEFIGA
Chain of intracellular phosphorylation of EGFR (Tyr1068) in PC-9 cells (Ex19Del) (P00533 with tags, fused parts or gaps DEL746-750): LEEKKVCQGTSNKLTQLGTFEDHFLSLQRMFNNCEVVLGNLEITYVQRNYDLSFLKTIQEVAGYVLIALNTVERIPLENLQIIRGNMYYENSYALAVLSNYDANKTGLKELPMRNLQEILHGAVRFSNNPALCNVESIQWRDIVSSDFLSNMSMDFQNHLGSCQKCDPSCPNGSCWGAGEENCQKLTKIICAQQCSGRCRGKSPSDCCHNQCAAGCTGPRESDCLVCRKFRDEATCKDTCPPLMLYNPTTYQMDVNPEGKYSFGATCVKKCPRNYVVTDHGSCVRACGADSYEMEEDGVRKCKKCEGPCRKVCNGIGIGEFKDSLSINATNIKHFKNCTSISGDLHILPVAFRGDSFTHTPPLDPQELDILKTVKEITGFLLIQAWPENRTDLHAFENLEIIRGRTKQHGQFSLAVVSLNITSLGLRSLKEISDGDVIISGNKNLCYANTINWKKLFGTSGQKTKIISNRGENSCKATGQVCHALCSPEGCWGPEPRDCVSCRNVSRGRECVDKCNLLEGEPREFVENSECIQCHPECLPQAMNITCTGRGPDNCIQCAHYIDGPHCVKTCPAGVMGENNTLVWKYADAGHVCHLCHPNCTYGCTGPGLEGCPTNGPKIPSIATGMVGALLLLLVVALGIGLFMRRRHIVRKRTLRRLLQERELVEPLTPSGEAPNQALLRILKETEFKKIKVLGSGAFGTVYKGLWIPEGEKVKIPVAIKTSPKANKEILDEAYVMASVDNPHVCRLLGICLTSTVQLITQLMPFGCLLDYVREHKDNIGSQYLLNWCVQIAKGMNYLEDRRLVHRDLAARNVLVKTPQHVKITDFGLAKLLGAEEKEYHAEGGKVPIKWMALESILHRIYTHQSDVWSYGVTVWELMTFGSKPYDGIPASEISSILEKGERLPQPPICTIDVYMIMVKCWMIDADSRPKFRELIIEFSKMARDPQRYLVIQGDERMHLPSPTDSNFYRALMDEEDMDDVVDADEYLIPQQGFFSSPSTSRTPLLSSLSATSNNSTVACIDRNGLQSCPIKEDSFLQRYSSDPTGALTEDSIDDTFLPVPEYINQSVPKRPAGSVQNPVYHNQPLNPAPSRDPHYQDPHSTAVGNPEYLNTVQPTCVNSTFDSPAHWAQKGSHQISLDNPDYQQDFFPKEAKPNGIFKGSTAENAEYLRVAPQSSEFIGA
T2 sequence (P00533 25-1210 L858R): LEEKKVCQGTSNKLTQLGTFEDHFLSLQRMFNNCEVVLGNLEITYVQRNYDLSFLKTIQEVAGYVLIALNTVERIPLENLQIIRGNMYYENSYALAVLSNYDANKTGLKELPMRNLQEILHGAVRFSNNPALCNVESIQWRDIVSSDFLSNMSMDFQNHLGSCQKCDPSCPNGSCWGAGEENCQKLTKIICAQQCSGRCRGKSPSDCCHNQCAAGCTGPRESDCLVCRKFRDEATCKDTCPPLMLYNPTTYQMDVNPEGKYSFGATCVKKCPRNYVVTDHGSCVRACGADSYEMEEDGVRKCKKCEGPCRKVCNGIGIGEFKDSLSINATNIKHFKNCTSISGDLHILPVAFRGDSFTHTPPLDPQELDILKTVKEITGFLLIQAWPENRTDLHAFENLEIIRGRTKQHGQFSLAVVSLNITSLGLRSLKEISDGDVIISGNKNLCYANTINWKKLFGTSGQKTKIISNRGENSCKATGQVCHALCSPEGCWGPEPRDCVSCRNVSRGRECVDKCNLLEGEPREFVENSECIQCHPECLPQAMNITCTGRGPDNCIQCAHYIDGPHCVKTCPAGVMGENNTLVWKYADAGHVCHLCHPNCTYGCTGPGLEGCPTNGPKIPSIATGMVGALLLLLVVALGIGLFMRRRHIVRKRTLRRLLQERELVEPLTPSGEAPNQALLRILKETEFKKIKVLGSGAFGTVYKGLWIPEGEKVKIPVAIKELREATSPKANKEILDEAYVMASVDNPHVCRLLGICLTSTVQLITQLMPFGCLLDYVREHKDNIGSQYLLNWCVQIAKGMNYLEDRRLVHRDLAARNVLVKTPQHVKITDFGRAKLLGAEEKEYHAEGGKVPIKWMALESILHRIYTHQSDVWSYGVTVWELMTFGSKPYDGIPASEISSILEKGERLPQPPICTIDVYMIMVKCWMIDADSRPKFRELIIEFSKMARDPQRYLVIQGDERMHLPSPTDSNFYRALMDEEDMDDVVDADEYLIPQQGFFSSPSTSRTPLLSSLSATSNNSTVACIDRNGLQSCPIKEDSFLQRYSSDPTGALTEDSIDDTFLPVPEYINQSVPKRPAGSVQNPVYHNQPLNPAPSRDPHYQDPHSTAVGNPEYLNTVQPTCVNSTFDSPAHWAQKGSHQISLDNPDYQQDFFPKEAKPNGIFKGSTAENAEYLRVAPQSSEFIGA

IC50 [3]	IC50 [1]	IC50 [2]	Structure (SMILES)	IC50 [1, 4]	IC50 [2, 4]
≤ 10 nM	< 10 nM	10.1 to 50 nM	C[C@H](CN(C)C)Oc1cc(N2CCOC(C(F)F)C2)cc2ncnc(Nc3ccc4ncccc4c3F)c12 (mixture of isomers) [Example 98, 7—((S)-2-(difluoromethyl)morpholino)-5-(((R)-1-(dimethylamino)propan-2-yl)oxy)-N-(5-fluoroquinolin-6-yl) and 7-((R)-2-(difluoromethyl)morpholino)-5-(((R)-1-(dimethylamino)propan-2-yl)oxy)-N-(5-fluoroquinolin-6-yl)quinazolin-4-amine]		
≤ 10 nM	< 10 nM	10.1 to 50 nM	CC(CN(C)C)Oc1cc(N2CC3CC(C2)O3)cc2ncnc(Nc3ccc4ncccc4c3)c12 (racemic) [Example 66, 7-(6-oxa-3-azabicyclo[3.1.1]heptan-3-yl)-5-(((R)-1-(dimethylamino)propan-2-yl)oxy)-N-(quinolin-6-yl)quinazolin-4-amine and 7-(6-oxa-3-azabicyclo[3.1.1]heptan-3-yl)-5-(((S)-1-(dimethylamino)propan-2-yl)oxy)-N-(quinolin-6-yl)quinazolin-4-amine]		
≤ 10 nM	< 10 nM	10.1 to 50 nM	C[C@H](CN(C)C)Oc1cc(N2CC3CC(C2)O3)cc2ncnc(Nc3ccc4ncccc4c3F)c12 [Example 70, 7-(6-oxa-3-azabicyclo[3.1.1]heptan-3-yl)-5-(((R)-1-(dimethylamino)propan-2-yl)oxy)-N-(5-fluoroquinolin-6-yl)quinazolin-4-amine]		
10.1 to 50 nM	< 10 nM	10.1 to 50 nM	Cc1ccc2cc(Nc3ncnc4cc(-c5cnn(C)c5)cc(O[C@H](C)CN(C)C)c34)ccc2n1 [Example 105, (R)-5-((1-(dimethylamino)propan-2-yl)oxy)-7-(1-methyl-1H-pyrazol-4-yl)-N-(2-methylquinolin-6-yl)quinazolin-4-amine]		
≤ 10 nM	< 10 nM	< 10 nM	CC(Oc1cc(-c2cnn(C)c2)cc2ncnc(Nc3ccc4ncccc4c3F)c12)C1(N(C)C)COC1 (stereo not drawn) [Example 142, 5-(1-(3-(dimethylamino)oxetan-3-yl)ethoxy)-N-(5-fluoroquinolin-6-yl)-7-(1-methyl-1H-pyrazol-4-yl)quinazolin-4-amine]		
> 50.1 nM	10.1 to 50 nM	> 50.1 nM	C[C@H](CN(C)C)Oc1cc(C2CC2)cc2ncnc(Nc3ccc4ncccc4c3F)c12 [Example 149, (R)-7-cyclopropyl-5-((1-(dimethylamino)propan-2-yl)oxy)-N-(5-fluoroquinolin-6-yl)quinazolin-4-amine]		
10.1 to 50 nM	10.1 to 50 nM	10.1 to 50 nM	CC(CN(C)C)Oc1cc(N2CC3CC(C2)O3)cc2ncnc(Nc3ccc4ncccc4c3)c12 (single isomer, unassigned) [Example 67, 7-(6-oxa-3-azabicyclo[3.1.1]heptan-3-yl)-5-(((R)-1-(dimethylamino)propan-2-yl)oxy)-N-(quinolin-6-yl)quinazolin-4-amine or 7-(6-oxa-3-azabicyclo[3.1.1]heptan-3-yl)-5-(((S)-1-(dimethylamino)propan-2-yl)oxy)-N-(quinolin-6-yl)quinazolin-4-amine]		
≤ 10 nM	< 10 nM	< 10 nM	C[C@@H](Oc1cc(-c2cnn(C)c2)cc2ncnc(Nc3ccc4ncccc4c3F)c12)C(CO)CCl (stereo partly drawn) [Example 113, (3R)-2-(chloromethyl)-3-((4-((5-fluoroquinolin-6-yl)amino)-7-(1-methyl-1H-pyrazol-4-yl)quinazolin-5-yl)oxy)butan-1-ol]		
10.1 to 50 nM	10.1 to 50 nM	10.1 to 50 nM	CNC[C@@H](C)Oc1cc(-c2cnn(C)c2)cc2ncnc(Nc3ccc4ncccc4c3F)c12 [Example 100, (R)—N-(5-fluoroquinolin-6-yl)-7-(1-methyl-1H-pyrazol-4-yl)-5-((1-(methylamino)propan-2-yl)oxy)quinazolin-4-amine]		
10.1 to 50 nM	< 10 nM	< 10 nM	C[C@H](CN(C)C)Oc1cc(N2CC3(CNC3)C2)cc2ncnc(Nc3ccc4ncccc4c3F)c12 [Example 152, (R)-5-((1-(dimethylamino)propan-2-yl)oxy)-N-(5-fluoroquinolin-6-yl)-7-(2,6-diazaspiro[3.3]heptan-2-yl)quinazolin-4-amine]		
10.1 to 50 nM	< 10 nM	10.1 to 50 nM	C[C@H](CN(C)C)Oc1cc(N2CCOC[C@@H]2CO)cc2ncnc(Nc3ccc4ncccc4c3F)c12 [Example 92, ((S)-4-(5-(((R)-1-(dimethylamino)propan-2-yl)oxy)-4-((5-fluoroquinolin-6-yl)amino)quinazolin-7-yl)morpholin-3-yl)methanol]		

The next lines start with the molecule.

Structure (SMILES)	IC50 [3]	IC50 [1]	IC50 [2]	IC50 [1, 4]	IC50 [2, 4]
C[C@H](Oc1cc(-c2cnn(C)c2)cc2ncnc(Nc3ccc4ncccc4c3F)c12)[C@@H]1CCCN1C (single isomer, unassigned) [Example 145]	> 50.1 nM			10.1 to 50 nM	10.1 to 50 nM
C[C@H](CN(C)C)Oc1cc(N2CC3(COC3)C2)cc2ncnc(Nc3c(F)cc4ncccc4c3F)c12 [Example 39, (R)—N-(5,7-difluoroquinolin-6-yl)-5-((1-(dimethylamino)propan-2-yl)oxy)-7-(2-oxa-6-azaspiro[3.3]heptan-6-yl)quinazolin-4-amine]	≤ 10 nM	< 10 nM	< 10 nM		
C[C@H](Oc1cc(-c2cnn(C)c2)cc2ncnc(Nc3ccc4ncccc4c3F)c12)[C@@H]1CCCN1C (single isomer, unassigned) [Example 147]	≤ 10 nM			< 10 nM	< 10 nM
COc1cc(O[C@H](C)CN(C)C)c2c(Nc3ccc4ncccc4c3F)ncnc2c1 [Example 57, (R)-5-((1-(dimethylamino)propan-2-yl)oxy)-N-(5-fluoroquinolin-6-yl)-7-methoxyquinazolin-4-amine]	10.1 to 50 nM	< 10 nM	10.1 to 50 nM		
C[C@@H](Oc1cc(-c2cnn(C(C)(C)CO)c2)cc2ncnc(Nc3ccc4ncccc4c3F)c12)C1COC1 [Example 47, (R)-2-(4-(4-(5-fluoroquinolin-6-ylamino)-5-(1-(oxetan-3-yl)ethoxy)quinazolin-7-yl)-1H-pyrazol-1-yl)-2-methylpropan-1-ol]	≤ 10 nM	< 10 nM	< 10 nM		
CN(C)CCOc1cc(-c2cnn(C)c2)cc2ncnc(Nc3ccc4ncccc4c3F)c12 [Example 34, 5-(2-(dimethylamino)ethoxy)-N-(5-fluoroquinolin-6-yl)-7-(1-methyl-1H-pyrazol-4-yl)quinazolin-4-amine]	10.1 to 50 nM	< 10 nM	10.1 to 50 nM		
COc1nn(C)cc1-c1cc(O[C@H](C)CN(C)C)c2c(Nc3ccc4ncccc4c3F)ncnc2c1 [Example 54, (R)-5-((1-(dimethylamino)propan-2-yl)oxy)-N-(5-fluoroquinolin-6-yl)-7-(3-methoxy-1-methyl-1H-pyrazol-4-yl)quinazolin-4-amine]	≤ 10 nM	< 10 nM	< 10 nM		
C[C@H](Oc1cc(-c2cnn(C)c2)cc2ncnc(Nc3ccc4ncccc4c3F)c12)C1COC1 (single isomer, unassigned) [Example 2, (S)—N-(5-fluoroquinolin-6-yl)-7-(1-methyl-1H-pyrazol-4-yl)-5-(1-(oxetan-3-yl)ethoxy)quinazolin-4-amine or (R)—N-(5-fluoroquinolin-6-yl)-7-(1-methyl-1H-pyrazol-4-yl)-5-(1-(oxetan-3-yl)ethoxy)quinazolin-4-amine]	≤ 10 nM			< 10 nM	< 10 nM
CN(C)[C@@H]1CC[C@H]1Oc1cc(-c2cnn(C)c2)cc2ncnc(Nc3ccc4ncccc4c3F)c12 (single isomer, unassigned) [Example 141, 5-((1R,2R)-2-(dimethylamino)cyclobutoxy)-N-(5-fluoroquinolin-6-yl)-7-(1-methyl-1H-pyrazol-4-yl)quinazolin-4-amine or 5-((1S,2S)-2-(dimethylamino)cyclobutoxy)-N-(5-fluoroquinolin-6-yl)-7-(1-methyl-1H-pyrazol-4-yl)quinazolin-4-amine]	> 50.1 nM			10.1 to 50 nM	10.1 to 50 nM
C[C@H](Oc1cc(-c2cnn(C)c2)cc2ncnc(Nc3ccc4ncccc4c3F)c12)[C@@H]1CCCN1C (single isomer, unassigned) [Example 146]	≤ 10 nM			< 10 nM	< 10 nM
C[C@H](CN(C)C)Oc1cc(-c2cnn(C)c2)cc2ncnc(Nc3ccc4nnccc4c3F)c12 [Example 41, (R)—N-(5-((1-(dimethylamino)propan-2-yl)oxy)-7-(1-methyl-1H-pyrazol-4-yl)quinazolin-4-yl)-5-fluorocinnolin-6-amine]	> 50.1 nM	10.1 to 50 nM	> 50.1 nM		
C[C@@H](Oc1cc(-c2cnn(C)c2)cc2ncnc(Nc3ccc4ncccc4c3F)c12)[C@@H]1COCCN1C (single isomer, unassigned) [Example 125]	10.1 to 50 nM			< 10 nM	< 10 nM
CN(C)C[C@H](Oc1cc(-c2cnn(C)c2)cc2ncnc(Nc3ccc4ncccc4c3F)c12)C(F)F (single isomer, unassigned) [Example 37, (S)-5-((3-(dimethylamino)-1,1-difluoropropan-2-yl)oxy)-N-(5-fluoroquinolin-6-yl)-7-(1-methyl-1H-pyrazol-4-yl)quinazolin-4-amine or (R)-5-((3-(dimethylamino)-1,1-difluoropropan-2-yl)oxy)-N-(5-fluoroquinolin-6-yl)-7-(1-methyl-1H-pyrazol-4-yl)quinazolin-4-amine]	≤ 10 nM			< 10 nM	< 10 nM

From patent US12662465B2, “EGFR inhibitors” (Blueprint Medicines Corporation, priority 2021, dated 2026)
